Reference: US20240002846A1, “COMPOSITIONS AND METHODS FOR THE DIAGNOSIS AND TREATMENT OF ITCH” (Duke University, priority 2020, published 2024)
Values joined by “and” are separate entries in the source; they are usually repeats but may differ in a detail not shown here. Identical values can stand only once. “Also recorded” adds a separate entry of the source.

What was measured:
pERK expression = assay: pERK Western blot in cultured mouse keratinocytes; assay type: cell-based; details: inhibitor 10 μM
Description: Primary mouse keratinocytes were cultured following previous protocol (Chen et al. J. Biol. Chem. 2016, 291, 10252-10262). The epidermis from the back skin of newborn WT or keratinocyte-Trpv4 cKO mice was separated from the dermis by floating the skin on 0.25% trypsin (Gibco, Gaithersburg, MD) for 14-18 h at 4° C. Basal keratinocytes were separated from the cornified sheets by filtration through a […] cell strainer. Keratinocytes were plated on collagen I-coated dishes or glass coverslips and grown in EME media (Gibco, Gaithersburg, MD) containing 8% chelex (Bio-rad, Hercules, CA)-treated FBS with the final Ca^2+ adjusted to 0.05 mM, bovine pituitary extract (50 μg/mL), epidermal growth factor (5 ng/mL), and lx antibiotics/antimycotics (Gibco, Gaithersburg, MD) in a humidified incubator with 5% CO2 at 37° C. for 5-7 days until use. To knockdown Trpv4 in isolated keratinocytes from newborn keratinocyte-Trpv4 cKO mice, cells were treated with 4-OH tamoxifen at 500 nM for 72 h.
Western Blot. Routine procedures were followed (Chen et al. J. Biol. Chem. 2016, 291, 10252-10262, Chen et al. Pain 2014, 155, 2662-2672). […] Immunoblot band intensity was quantitated using the software Image J and ERK served as a control for pERK expression.

hTRPV4-R269H = molecular target: T1, hTRPV4-R269H (Homo sapiens, UniProt Q9HBA0, R269H); assay: Inside-out patch-clamp, hTRPV4-R269H; assay type: biochemical; details: 5 μM LPC 18:1
T1 construct: expressed in transfected cells; host or cells: HEK293
T1 sequence (Q9HBA0 whole entry R269H): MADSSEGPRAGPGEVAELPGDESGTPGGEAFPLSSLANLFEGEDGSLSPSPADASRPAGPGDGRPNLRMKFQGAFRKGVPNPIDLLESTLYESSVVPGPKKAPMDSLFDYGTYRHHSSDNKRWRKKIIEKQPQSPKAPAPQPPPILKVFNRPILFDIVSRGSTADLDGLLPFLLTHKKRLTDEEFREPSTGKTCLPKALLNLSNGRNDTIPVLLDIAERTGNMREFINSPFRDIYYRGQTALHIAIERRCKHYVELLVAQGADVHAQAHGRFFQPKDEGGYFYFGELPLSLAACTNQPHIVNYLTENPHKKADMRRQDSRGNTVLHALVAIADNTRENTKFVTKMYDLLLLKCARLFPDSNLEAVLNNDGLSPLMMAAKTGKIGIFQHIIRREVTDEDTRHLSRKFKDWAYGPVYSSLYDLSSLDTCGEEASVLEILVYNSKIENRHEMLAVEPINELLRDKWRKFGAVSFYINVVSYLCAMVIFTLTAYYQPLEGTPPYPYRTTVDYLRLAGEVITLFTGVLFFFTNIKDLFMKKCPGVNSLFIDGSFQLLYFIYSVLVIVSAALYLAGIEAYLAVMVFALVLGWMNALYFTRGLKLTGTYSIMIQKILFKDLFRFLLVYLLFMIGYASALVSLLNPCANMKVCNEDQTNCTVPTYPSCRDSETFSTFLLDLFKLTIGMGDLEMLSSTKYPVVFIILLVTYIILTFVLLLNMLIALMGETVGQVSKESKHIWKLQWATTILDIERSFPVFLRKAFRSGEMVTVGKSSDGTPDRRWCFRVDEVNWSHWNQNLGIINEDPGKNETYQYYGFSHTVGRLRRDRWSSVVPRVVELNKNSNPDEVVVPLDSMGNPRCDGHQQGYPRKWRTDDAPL
Description: (§1) Cell culture and transfection. HEK293 cells (ATCC® CRL-1573) were cultured on poly-D-lysine coated coverslips in 24-well plate containing DMEM media with high-Glucose (Gibco, Gaithersburg, MD) supplemented with 10% fetal bovine serum (FBS, HyClone Laboratories, Logan, UT) and 100 U/mL of penicillin/streptomycin (Gibco, Gaithersburg, MD). Cell cultures were maintained with 5% of CO2 in a humidified incubator at 37° C. HEK cells were transfected with rat or human wild type or mutant TRPV4 channels with EGFP or YFP coupled to their C-termini (1.5 μg of plasmid for excised patch clamp and Ca^2+ imaging and 200 ng for single-channel experiments). […]
(§2) Electrophysiology. Currents were recorded using the inside-out configuration of the patch-clamp technique (Hamill et al. Pflugers Arch. 1981, 391, 85-100). […] Mean current values in response to GSK1016790A or LPC 18:1 were measured after channel activation had reached the steady-state (˜3 min). […] Currents were low-pass filtered at 2 kHz and sampled at 10 kHz with an EPC 10 amplifier (HEKA Elektronik) and were plotted and analyzed with Igor Pro (Wavemetrics Inc.).

hTRPV4-R746C = molecular target: T2, hTRPV4-R746C (Homo sapiens, UniProt Q9HBA0, R746C); assay: Inside-out patch-clamp, hTRPV4-R746C; assay type: biochemical; details: 5 μM LPC 18:1
T2 construct: expressed in transfected cells; host or cells: HEK293
T2 sequence (Q9HBA0 whole entry R746C): as the sequence (Q9HBA0 whole entry R269H) above, with H269R, R746C counted along it
Description: as §1, §2

rTRPV4 = rTRPV4 (Rattus norvegicus, UniProt Q9ERZ8); assay: Inside-out patch-clamp, HEK cells transfected with rTRPV4; assay type: biochemical; design: expressed in transfected cells; host or cells: HEK293; details: 5 μM LPC 18:1, WT-rTRPV4, inside-out patches
Chain of rTRPV4 (Q9ERZ8 whole entry): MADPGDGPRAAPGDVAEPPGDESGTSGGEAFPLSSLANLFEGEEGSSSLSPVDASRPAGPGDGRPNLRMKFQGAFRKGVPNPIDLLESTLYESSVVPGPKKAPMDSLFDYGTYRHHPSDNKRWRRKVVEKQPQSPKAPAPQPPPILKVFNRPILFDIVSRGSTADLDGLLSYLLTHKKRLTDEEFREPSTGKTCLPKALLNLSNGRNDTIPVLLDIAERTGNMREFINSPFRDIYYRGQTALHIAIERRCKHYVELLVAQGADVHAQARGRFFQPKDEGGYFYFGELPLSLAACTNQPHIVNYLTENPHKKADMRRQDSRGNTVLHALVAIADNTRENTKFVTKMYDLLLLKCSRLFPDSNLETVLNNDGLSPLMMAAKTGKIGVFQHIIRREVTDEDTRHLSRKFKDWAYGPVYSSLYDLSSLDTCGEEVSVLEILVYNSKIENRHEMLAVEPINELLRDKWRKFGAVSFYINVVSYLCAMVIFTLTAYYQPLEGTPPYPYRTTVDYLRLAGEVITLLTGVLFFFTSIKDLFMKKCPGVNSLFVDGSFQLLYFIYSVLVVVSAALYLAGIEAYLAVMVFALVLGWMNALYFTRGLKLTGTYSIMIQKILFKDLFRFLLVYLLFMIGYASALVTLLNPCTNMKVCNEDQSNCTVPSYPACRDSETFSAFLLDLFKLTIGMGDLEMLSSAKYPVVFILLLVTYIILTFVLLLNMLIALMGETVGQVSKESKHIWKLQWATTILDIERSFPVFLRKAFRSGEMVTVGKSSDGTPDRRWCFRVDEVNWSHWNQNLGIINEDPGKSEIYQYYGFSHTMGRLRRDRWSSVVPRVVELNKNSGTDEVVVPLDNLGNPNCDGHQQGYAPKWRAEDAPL
Description: as §1, §2

Compound | effect on LPC-increased pERK expression (pERK expression) | average activation of currents, normalized to 1 μM GSK101 (hTRPV4-R269H) | average activation of currents, normalized to 1 μM GSK101 (hTRPV4-R746C) | average activation of currents, normalized to 1 μM GSK101 (rTRPV4) | average activation of currents, normalized to 1 μM GSK101 (rTRPV4; listed as LPC (18:1))
Cc1c(C(=O)Nc2cccc(C(F)(F)F)c2)cc(-c2ccccc2)n1CCCN1CCOCC1 [HC067047] | eliminated the increase; also recorded: abolished |  |  |  | 
LPC 18:1 |  | 42±6% | 11±4% | 54±4% | 54% and ~50%
